# From US12358966B2, “Inducible caspases and methods for use” (Poseida Therapeutics, Inc., priority 2016, dated 2025)
# Like-named read-outs stand apart in the source and are kept apart here.
# Assays:
# Human pan T-cells = assay: iC9 safety switch test: viability of modified T cells by flow cytometry with 7-AAD after incubation with AP1903; assay type: cell-based; settings: 24 hours incubation, 0-1000 nM tested
# Excerpt: Human pan T-cells were nucleofected using an Amaxa 4D nucleofector with one of four piggyBac transposons. Modified T cells receiving the “mock” condition were nucleofected with an empty piggyBac transposon. Modified T cells received either a piggyBac […] containing a therapeutic agent alone (a sequence encoding a CARTyrin) or a piggyBac […] containing an integrated iC9 sequence and a therapeutic agent (a sequence encoding a CARTyrin).
# To test the iC9 safety switch, each of the four modified T cells were incubated for 24 hours with 0, 0.1 nM, 1 nM, 10 nM, 100 nM or 1000 nM AP1903 (an induction agent for […], also known as Rimiducid). Viability was assessed by flow cytometry using 7-aminoactinomycin D (7-AAD), a fluorescent intercalator, as a marker for cells undergoing apoptosis.
# Cell viability was assessed at day 12 (see FIG. 2). […] Moreover, cell viability was assessed at day 19 (see FIG. 3). […]
# A quantification of the aggregated results was performed and is provided in FIG. 4, showing the significant impact of the iC9 safety switch on the percent cell viability as a function of the concentration of the induction agent (AP1903, also known as Rimiducid) of the iC9 switch for each modified cell type at either day 12 (FIG. 2 and left graph) or day 19 (FIG. 3 and right graph).
# cells [1] = assay: Amount of AP1903 needed in vitro for effective signaling of cells; assay type: cell-based; settings: calculated with 1600 Da MW
# Method: The fixed dose of AP1903 (Rimiducid) for injection used, for example, may be 0.4 mg/kg intravenously infused over 2 hours. The amount of AP1903 (Rimiducid) needed in vitro for effective signaling of cells is 10-100 nM (1600 Da MW). This equates to 16-160 μg/L or […]. Doses up to 1 mg/kg were well-tolerated in the Phase I study of AP1903 (Rimiducid) described above. Therefore, 0.4 mg/kg may be a safe and effective dose of AP1903 (Rimiducid) for this Phase I study in combination with the therapeutic cells.
# cells [2] = settings: cited from earlier work
# [3] = tested on: cells comprising P-BCMA-101; assay: In vivo killing of cells comprising P-BCMA-101 via iC9 safety switch in NSG mice (huCD45+ cells in blood, spleen, bone marrow); settings: AP1903 0.005-5 mg/kg on day 12, analysis 24 hours later
# Method: FIG. 5 is a diagram showing a study timeline and outline for an in vivo study. NSG mice were IV injected with MM.1S/luciferase^+ cells, staged at day 8, injected with T cells on day 9, and treated with AP1903 (Rimiducid) on day 12 at the indicated doses. 24 hours later, mice were euthanized and blood, spleen, and bone marrow cells were collected and stained for the presence of huCD45^+ cells.
# Blood, spleen, and bone marrow cells were analyzed by flow cytometry for the presence of huCD45^+ cells. The relative viability was determined by: ((#of huCD45 cells/ #of msCD45 cells)/(Average of huCD45/msCD45 in no treatment group))*100% per 1,500 bead events for each sample. Each data point represents a different mouse. On the x-axis is plotted percent Relative CAR-T Viability from 0 to 175 in increments of 25. […]
# NSG mice were IV injected with MM.1S/luciferase^+ cells, staged at day 8, injected with T cells on day 9, and treated with AP1903 (Rimiducid) on day 12 at the indicated doses. […] Blood, spleen, and bone marrow cells were analyzed by flow cytometry for the presence of huCD45^+ cells. The relative viability was determined by dividing the number of huCD45 cells by the number of msCD45 cells and normalizing to the average of huCD45/msCD45 in the no treatment group times, 100% per 1,500 bead events for each sample. […]
# [4] = cited from earlier work
structure (smiles),measurement,setting,value
"CC[C@H](C(=O)N1CCCC[C@H]1C(=O)O[C@H](CCc1ccc(OC)c(OC)c1)c1cccc(OCC(=O)NCCNC(=O)COc2cccc([C@@H](CCc3ccc(OC)c(OC)c3)OC(=O)[C@@H]3CCCCN3C(=O)[C@@H](CC)c3cc(OC)c(OC)c(OC)c3)c2)c1)c1cc(OC)c(OC)c(OC)c1 (relative stereo) [AP1903, 2-Piperidinecarboxylic acid, 1-[(2S)-1-oxo-2-(3,4,5-trimethoxyphenyl)butyl]-, 1,2-ethanediylbis[imino (2-oxo-2,1-ethanediyl)oxy-3,1-phenylene[(1R)-3-(3,4-dimethoxyphenyl)propylidene]]ester, [2S-[1(R*),2R*[S*[S*[1(R*),2R*]]]]]-(9C1)]",lowest concentration of the study at which apoptosis is induced,Human pan T-cells,0.1 nM
same,"amount needed for effective signaling, converted to dose",cells [1],0.016 to 1.6 µg/kg
same,"amount needed for effective signaling, converted to mass concentration",cells [1],16 to 160 µg/L
same,amount needed in vitro for effective signaling of cells,cells [2],10 to 100 nM
same,killing of cells comprising P-BCMA-101 in vivo,[3],highly efficient killing
same,plasma levels versus dose,"[4]; 0.01, 0.05, 0.1, 0.5 and 1.0 mg/kg",directly proportional to dose
same,plasma level as % of maximal concentration,[4]; 0.5 hours post-dose,approximately 18%
same,plasma level as % of maximal concentration,[4]; 2 hours post-dose,~7%
same,plasma level as % of maximal concentration,[4]; 10 hours post-dose,~1%
same,well-tolerated dose,[4]; Phase I study,up to 1 mg/kg
same,safety and tolerability,"[4]; all dose levels 0.01-1.0 mg/kg, single dose IV over 2 hours",safe and well tolerated at all dose levels
same,pharmacokinetic profile,[4]; healthy volunteers,favorable pharmacokinetic profile
same,mean Cmax,"[4]; over the 0.01-1.0 mg/kg dose range, IV infusion over 2 hours, 24 healthy volunteers",10 to 1275 ng/mL
